Source: ChEMBL document CHEMBL3045016, “Insecticidal compounds from the essential oil of Chinese medicinal herb Atractylodes chinensis” (2011)

Test system: Drosophila melanogaster
Assay: Insecticidal activity against wild type Drosophila melanogaster L. assessed as mortality compound topically applied dorsally to the thorax at 23 to 25 25 degC, 60 to 70%RH measured per adult after 3 hr
Format: functional

Point of comparison: `CC1=CCC[C@H](C)[C@@]12CC[C@@H](C(C)(C)O)C2` [HINESOL], LD50 0.71 µg. Against it:
- C=C[C@]1(C)CC[C@@H](C(C)(C)O)C[C@H]1C(=C)C [ALPHA-ELEMOL] — lower, 0.65 µg
- C=C1CCC[C@]2(C)Cc3occ(C)c3C[C@@H]12 [ATRACTYLON] — higher, 1.43 µg
- C=C1CCC[C@]2(C)CC[C@@H](C(C)(C)O)C[C@@H]12 [BETA-EUDESMOL] — higher, 2.63 µg
- C=C(C)[C@@H]1CC[C@@]2(C)CCCC(=C)[C@@H]2C1 [BETA-SELINENE] — lower, 0.55 µg
